Assay results: patent US20210309645A1, “pH DEPENDENT PHOTOACOUSTIC COMPOUNDS AND APPLICATIONS THEREOF” (Wake Forest University, priority 2018, published 2021)

Columns and labels:
[1] = Quantum yield and spectral properties in buffered solutions, by comparison with rhodamine; assay type: physicochemical; settings: for ΦF (quantum yield): vs rhodamine
Method: The quantum yield of compound (Ia) under acidic (pH 6.0), neutral (7.0), and basic (pH 8.0) buffered solutions were calculated by comparison with rhodamine (ΦR=0.95 in ethanol), where ΦF is the quantum yield.

[2] = Absorption spectra in the presence of ions and reactive cellular products at pH 7.4; assay type: physicochemical; settings: Na+, K+, Ca2+, Fe2+, Mg2+, Zn2+, Fe3+ chloride salts, H2O2, GSH, cysteine
Method: Since compound (Ia) was designed to spectrally alter based upon H^+ protonation, compound (Ia) was also evaluated in the presence of de-ionized water, phosphate buffer saline, and/or other ions which are present in living organisms (Na^+, K^+, Ca^2+, Fe^2+, Mg^2+, Zn^2+, Fe^3+ and Fe^2+ as chloride salts), and other highly reactive cellular products (H2O2, glutathione (GSH), cysteine) at pH 7.4. […] With the establishment that modulation of spectral absorption corresponded to H^+ without influence of other ions, compound (Ia) was further evaluated as a potential optoacoustic agent.

[3] = UV-Vis absorbance spectra in variable pH PBS buffer solutions; assay type: physicochemical; settings: pH 7.4, 7.0, 6.8, 6.5
Method: Substantial differences were observed between pH 7.4 and pH 7.0 (B), pH 7.0 and 6.8 (C). A small additional peak was observed between pH 6.8 and 6.5 (D). This initial identification of the ability of compound (Ia) to modulate absorbance spectra was solely dependent upon variation in pH as changes in absorbance in various light conditions, various levels of 02, and various cell culture medium (with and without phenol red) (data not shown) were also tested.

[4] = test system: orthotopic pancreatic tumor; assay: MSOT imaging of compound accumulation in mice with orthotopic pancreatic tumor; assay type: in vivo; settings: SCID mice, iv tail vein, 100 nM in PBS pH 7.4, 100 μl; after 2 h
Method: Preliminary evaluation of compound (Ia) accumulation within mice was conducted. A matrigel plug containing surgicel mesh and fibroblast was injected subcutaneously to stimulate non-malignant fibrotic tissue two weeks prior to orthotopic tumor implantation in 3 SCID mice. Mice were anesthesized using 1.5% isoflurane and a gas mixture of 0.9 L medical air and 0.1 L 02 to detect tissue hypoxia. Because areas of tissue hypoxia will also have acidic extracellular pH, tissue hypoxia served as an additional acidic extracellular pH (pHe) control. One week post tumor implantation mice were imaged using MSOT to obtain a baseline prior to iv tail vein injection of compound (Ia) at (100 nM in PBS pH 7.4) in 100 μl total volume.

[5] = in ethanol; cited from earlier work
[6] = pH 6.0 (acidic) buffered solution
[7] = pH 7.0 (neutral) buffered solution
[8] = pH 8.0 (basic) buffered solution

Molecule | Absmax [1, 6] [nm] | Emmax [1, 6] [nm] | ΦF (quantum yield) [1, 6] | Absmax [1, 7] [nm] | Emmax [1, 7] [nm] | ΦF (quantum yield) [1, 7] | Absmax [1, 8] [nm] | Emmax [1, 8] [nm] | ΦF (quantum yield) [1, 8] | change of absorption spectra in the presence of other ions and reactive cellular products [2] | pH dependence of absorbance spectra (UV-Vis) [3] | accumulation detected by MSOT [4] | ΦR (quantum yield of reference) [5]
C[N+]1=C(/C=C/C2=C3Oc4cc(O)ccc4C=C3CCC2)C(C)(C)c2c1ccc1c2ccc2cc(Cl)ccc21 [compound (Ia)] | 652 | 694 | 0.18 | 704 | 745 | 0.22 | 765 | 810 | 0.23 | did not significantly alter | absorbance spectra modulation corresponding with variable pH PBS buffer solutions | Pancreatic tumor specific accumulation | –
rhodamine | – | – | – | – | – | – | – | – | – | – | – | – | 0.95
